Test results reported in patent US10351530B2, “Arylcyclohexyl pyrazoles as NRF2 regulators” (GlaxoSmithKline Intellectual Property Development Limited, priority 2015, dated 2019).
pEC50, pIC50: −log10 of the molar value.

Experiments:
NRF2/Keap1 = biological target: T1, NRF2/Keap1 (Homo sapiens, UniProt Q14145); assay: NRF2-Keap1 TR-FRET Low Protein Assay (full length NRF2 and full length Keap1); format: binding; details: low protein: 1.25 nM Keap1 FlagHis, 2.5 nM biotin-NRF2 added
T1 construct: full length NRF2 protein and full length Keap1 protein (Keap1 exists a dimer) are used
Description: In the NRF2-Keap1 TR-FRET (time-resolved fluorescence resonance energy transfer) low protein assay, full length NRF2 protein and full length Keap1 protein (Keap1 exists a dimer) are used. The assay detects a compound's ability to displace the binding of Keap1 FlagHis with biotinylated Avi-NRF2 protein. Biotin-NRF2 binds to streptavidin-europium (a component of the detection mix) and Keap1 FlagHis is recognized by anti-Flag APC (allophycocyanin) antibody (also a component of the detection mix). If binding occurs between the two proteins, there will be an energy transfer from the Eu+3 (donor) at 615 nm to the APC (acceptor) at 665 nm. A potential NRF2 inhibitor will cause a reduction in the TR-FRET signal by interfering with the binding of Keap1 to NRF2.
Ten nanoliters of 100× compound dose response curves (serial 3-fold dilutions) in DMSO are stamped using an Echo liquid handling system (Labcyte) into 384-well, low volume, black assay plates (Greiner, #784076), with DMSO in columns 6 and 18. An additional 90 nl DMSO is added to each well, to bring the total volume to 100 nl per well. The top concentration of compound is located in columns 1 and 13, with the serial dilutions going across the row. All reagents are diluted in assay buffer (50 mM Tris, pH 8.0, 5 mM MgCl2, 100 mM NaCl, 0.005% BSA, 1 mM DTT, and 2 mM CHAPS. The BSA, DTT, and CHAPS are added to the assay buffer on the day of assay. Using a Multidrop Combi (Thermo Electron Corporation) equipped with a metal tip dispenser, 5 ul of 1.25 nM Keap1 FlagHis protein is added to all wells of the compound plate, with the exception of the wells in column 18. Wells in column 18 receive 5 ul of assay buffer instead. Plates are centrifuged at 500 rpm for 1 minute, covered with a plate lid, and incubated at 37° C. for 2.25 hours. Plates are then removed from the incubator and allowed to cool to RT for 15 minutes. Five microliters of 2.5 nM biotin-NRF2 protein is then added to all wells of the plates and the plates are spun at 500 rpm for 1 minute, followed by incubating at 4° C. for 1.25 hours. The plates are then allowed to warm to RT for 15 minutes, followed by the addition of 10 ul of detection mix (1 nM Streptavidin Eu+ W1024 and 5 ug/ml mouse anti-DYKDDDDK IgG conjugated to SureLight APC antibody; both from Columbia Biosciences) to all wells. Plates are spun at 500 rpm for 1 minute, incubated for 1 hour at RT, and read on an Envision plate reader using a 320 nm excitation filter and 615 nm and 665 nm emission filters. Compound response (% inhibition) and potency (pIC50) are calculated based on the ratio of the two emissions (665 nm/615 nm) and then the transformed data is normalized against controls in the assay (control 1=1% DMSO in the presence of NRF2 and Keap1 protein and control 2=1% DMSO in the presence of only the NRF2 protein). Data analysis is handled using the software package Abase XE (Surrey, United Kingdom). The % inhibition values are calculated from the ratio (transformed) data by the equation: 100−(100*(compound response-average control 2)/(average control 1−average control 2)). For calculation of pIC50s, Abase XE uses a four parameter equation.

[1] = system: NQO1 specific enzyme activity in BEAS-2B cells; assay: BEAS-2B NQO1 MTT Assay; format: cell-based; details: NQO1 specific activity induction
Summary of the method: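 BEAS-2B cells exposed to compound for 48 h at 37 °C, 5% CO2, then lysed. NQO1 activity in crude lysate read kinetically by MTT cocktail absorbance at 570 nm over 30 min. pEC50 from ΔOD/min versus log concentration, 3-parameter fit.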

T1 sequence (Q14145 whole entry): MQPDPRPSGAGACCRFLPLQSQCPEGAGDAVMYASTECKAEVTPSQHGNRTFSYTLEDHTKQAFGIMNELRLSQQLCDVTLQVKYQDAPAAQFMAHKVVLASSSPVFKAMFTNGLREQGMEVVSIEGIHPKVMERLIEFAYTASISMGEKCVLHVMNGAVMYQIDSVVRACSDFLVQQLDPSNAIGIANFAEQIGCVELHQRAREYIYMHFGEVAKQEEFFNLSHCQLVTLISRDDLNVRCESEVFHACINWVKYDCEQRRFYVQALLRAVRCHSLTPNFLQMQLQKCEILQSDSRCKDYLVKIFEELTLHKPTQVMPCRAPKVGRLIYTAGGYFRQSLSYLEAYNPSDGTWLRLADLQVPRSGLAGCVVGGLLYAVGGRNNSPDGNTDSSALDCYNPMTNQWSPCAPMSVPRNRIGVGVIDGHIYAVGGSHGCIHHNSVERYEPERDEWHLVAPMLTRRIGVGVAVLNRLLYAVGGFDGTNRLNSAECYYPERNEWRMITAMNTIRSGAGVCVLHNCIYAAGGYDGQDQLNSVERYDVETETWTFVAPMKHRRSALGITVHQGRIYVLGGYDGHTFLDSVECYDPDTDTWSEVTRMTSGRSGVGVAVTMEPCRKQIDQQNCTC

SMILES	pIC50 (NRF2/Keap1)	pEC50 ([1]; Homo sapiens, BEAS-2B, 48 h)	pEC50 ([1]; 48 hours)
CC1(C)CCc2cnn([C@@H]3CCC[C@@H](c4cccc(-n5ncc(C(=O)O)c5C5CC5)c4)C3)c21 (racemic) [Example 23, 5-Cyclopropyl-1-(3-(t-3-(6,6-dimethyl-5,6-dihydrocyclopenta[c]pyrazol-1(4H)-yl)cyclohexyl)phenyl)-1H-pyrazole-4-carboxylic Acid]	5.00 to 6.00	6.00 to 7.00	
Cn1cc(C2CC2c2c(C(=O)O)cnn2-c2cccc([C@@H]3CCC[C@H](n4ncc5c4C(C)(C)CC5)C3)c2)nn1 (stereo partly drawn) [Example 39, 1-(3-((1R,3S)-3-(6,6-Dimethyl-5,6-dihydrocyclopenta[c]pyrazol-1(4H)-yl)cyclohexyl)phenyl)-5-(2-(1-methyl-1H-1,2,3-triazol-4-yl)cyclopropyl)-1H-pyrazole-4-carboxylic Acid]	> 8.00	6.00 to 7.00	
CCOC[C@@H]1CCCN1C(=O)C1CCCC(c2cccc(-n3ncc(C(=O)O)c3C3CC3)c2)C1 (single isomer, unassigned) [Example 18g]	> 8.00		6.00 to 7.00
CC(C)CCC1CCCN1C(=O)C1CCCC(c2cccc(-n3ncc(C(=O)O)c3C3CC3)c2)C1 (racemic) [Example 11, 5-Cyclopropyl-1-(3-{3-[2-(3-methylbutyl)pyrrolidine-1-carbonyl]cyclohexyl}phenyl)-1H-pyrazole-4-carboxylic Acid]	7.00 to 8.00	6.00 to 7.00	
CCCCC1CCCN1C(=O)C1CCCC(c2cccc(-n3ncc(C(=O)O)c3C3CC3)c2)C1 (racemic) [Example 8c, 1-{3-[3-(2-Butylpyrrolidine-1-carbonyl)cyclohexyl]phenyl}-5-cyclopropyl-1H-pyrazole-4-carboxylic Acid]	7.00 to 8.00	6.00 to 7.00	
CCCCC1CCc2cnn([C@@H]3CCC[C@@H](c4cccc(-n5ncc(C(=O)O)c5C5CC5)c4)C3)c21 (stereo partly drawn) [Example 38, 1-(3-((1,3-trans)-3-(6-Butyl-5,6-dihydrocyclopenta[c]pyrazol-1(4H)-yl)cyclohexyl)phenyl)-5-cyclopropyl-1H-pyrazole-4-carboxylic Acid]	4.00 to 5.00		6.00 to 7.00
O=C(O)c1cnn(-c2cccc(C3CCCC(C(=O)N4CCCC4C4CC4)C3)c2)c1C1CC1 (racemic) [Example 12, 5-cyclopropyl-1-{3-[3-(2-cyclopropylpyrrolidine-1-carbonyl)cyclohexyl]phenyl}-1H-pyrazole-4-carboxylic Acid]	7.00 to 8.00	6.00 to 7.00	
CCCC[C@@H]1CCCN1C(=O)[C@H]1CCC[C@@H](c2cccc(-n3ncc(C(=O)O)c3C3CC3)c2)C1 [Example 17f, 1-{3-[(1R,3S)-3-[(2R)-2-Butylpyrrolidine-1-carbonyl]cyclohexyl]phenyl}-5-cyclopropyl-1H-pyrazole-4-carboxylic Acid]	> 8.00	7.00 to 8.00	
Cn1cc(C2CC2c2c(C(=O)O)cnn2-c2cccc([C@H]3CCC[C@H](n4ncc5c4C(C)(C)CC5)C3)c2)nn1 (stereo partly drawn) [Example 40, 1-(3-((1,3-trans)-3-(6,6-Dimethyl-5,6-dihydrocyclopenta[c]pyrazol-1(4H)-yl)cyclohexyl)phenyl)-5-(2-(1-methyl-1H-1,2,3-triazol-4-yl)cyclopropyl)-1H-pyrazole-4-carboxylic Acid]	7.00 to 8.00	5.00 to 6.00	
CCCCC1CCCN1C(=O)C1CCCC(c2cccc(-n3ncc(C(=O)O)c3C3CC3c3cn(C)nn3)c2)C1 (stereo not drawn) [Example 42, 1-(3-(3-(2-Butylpyrrolidine-1-carbonyl)cyclohexyl)phenyl)-5-(2-(1-methyl-1H-1,2,3-triazol-4-yl)cyclopropyl)-1H-pyrazole-4-carboxylic Acid]	> 8.00	5.00 to 6.00	
CCCCC1CCCC1N(C)C(=O)C1CCCC(c2cccc(-n3ncc(C(=O)O)c3C3CC3)c2)C1 (stereo not drawn) [Example 41, 1-(3-(3-((2-Butylcyclopentyl)(methyl)carbamoyl)cyclohexyl)phenyl)-5-cyclopropyl-1H-pyrazole-4-carboxylic Acid]	6.00 to 7.00	6.00 to 7.00	
O=C(O)c1cnn(-c2cccc(C3=CC(C(=O)N4CCCCCC4)CCC3)c2)c1C1CC1 (stereo not drawn) [Example 19, 1-(5′-(Azepane-1-carbonyl)-2′,3′,4′,5′-tetrahydro-[1,1′-biphenyl]-3-yl)-5-cyclopropyl-1H-pyrazole-4-carboxylic Acid]	6.00 to 7.00	5.00 to 6.00	
